# What was measured:
# human CCSCs = assay: Orthotopic (cecum) model of luciferase expressing human CCSCs in NOD-SCID mice; type: in vivo
# Experimental: FIGS. 8A, 8B, 8C, and 8D show growth of cecal tumor volume (FIGS. 8A & 8B) and liver metastasis score (FIGS. 8C & 8D) in orthotopic model of CCSCs after treatment with vehicle, aspirin, d-T3, and aspirin+d-T3.
# In vivo model of human CCSC were developed by implanting the stably transfected luciferase expressing CCSCs in the cecum of NOD-SCID mice. In this model, tumor growth, metastasis, and survival are monitored twice weekly by IP injection of luciferin (150 mg/kg body weight) and imaged using the IVIS 200 Bioluminescence imaging system. […] These findings strongly indicate that d-T3 targets CCSCs and enhances the ability of aspirin to target these cells.
# [1] = system: Oct4, Nanog, Sox2, KLF4, c-myc, c-PARP; assay: Western blot of stem cell transcription factors and c-PARP in CCSCs; type: cell-based, human
# HT-29 = assay: Apoptosis induction in HT-29; type: cell-based, human
# hCAS = molecular target: T1, hCAS (Homo sapiens, UniProt P55060); assay: Competitive affinity-isolation of hCAS in MiaPaCa-2 cell lysate; type: binding; conditions: excess free compound
# T1 construct: endogenous in cells; host or cells: MiaPaCa-2 human pancreatic cancer cells
# T1 sequence (P55060 1-971): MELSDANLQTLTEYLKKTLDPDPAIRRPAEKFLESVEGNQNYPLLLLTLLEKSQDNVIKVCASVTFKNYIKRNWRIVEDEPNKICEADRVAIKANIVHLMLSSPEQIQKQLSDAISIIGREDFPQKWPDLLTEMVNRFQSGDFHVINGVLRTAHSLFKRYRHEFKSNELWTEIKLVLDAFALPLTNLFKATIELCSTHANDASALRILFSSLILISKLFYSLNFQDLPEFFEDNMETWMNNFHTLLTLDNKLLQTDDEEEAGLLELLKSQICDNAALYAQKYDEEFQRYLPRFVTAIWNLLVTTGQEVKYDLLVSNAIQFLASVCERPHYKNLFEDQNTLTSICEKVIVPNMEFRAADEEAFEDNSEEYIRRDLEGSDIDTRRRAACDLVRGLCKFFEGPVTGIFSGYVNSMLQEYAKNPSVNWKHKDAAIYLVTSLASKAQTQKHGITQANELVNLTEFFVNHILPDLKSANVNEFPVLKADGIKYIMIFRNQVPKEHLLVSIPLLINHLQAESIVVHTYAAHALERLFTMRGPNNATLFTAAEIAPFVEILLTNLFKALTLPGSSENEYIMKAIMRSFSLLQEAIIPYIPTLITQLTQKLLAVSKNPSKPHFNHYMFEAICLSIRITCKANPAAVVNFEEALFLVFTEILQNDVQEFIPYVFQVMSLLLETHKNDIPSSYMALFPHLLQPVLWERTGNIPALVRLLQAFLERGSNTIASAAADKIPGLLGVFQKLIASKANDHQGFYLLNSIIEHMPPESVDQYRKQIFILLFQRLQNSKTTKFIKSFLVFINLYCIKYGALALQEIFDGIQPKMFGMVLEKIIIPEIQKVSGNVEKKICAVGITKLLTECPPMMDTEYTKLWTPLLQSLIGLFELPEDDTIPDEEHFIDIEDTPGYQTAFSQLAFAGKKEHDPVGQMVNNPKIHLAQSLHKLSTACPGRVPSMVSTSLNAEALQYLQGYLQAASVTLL
# Experimental: This experiment used a synthetic biotin-δ-tocotrienol conjugate (shown below to inhibit growth activity of cultured MiaPaca-2 human pancreatic cancer cells) to confirm affinity-isolation of hCAS. To confirm that δ-T3 binds to hCAS in intact cells, biotinylated δ-T3 (B-δ-T3) was prepared by chemically coupling the —OH group of δ-T3 to the —COOH of biotin using a PEG-iodoactamide linker (FIG. 18). […] Affinity-isolation of hCAS was inhibited in the presence of free δ-tocotrienol but not with free δ-tocopherol.
smiles,measurement,setting,value
"CC(C)=CCC/C(C)=C/CC/C(C)=C/CC[C@]1(C)CCc2cc(O)cc(C)c2O1 [d-T3, δ-tocotrienol]",growth of human CRC stem cells (cecal tumor),human CCSCs,inhibited
same,metastases of human CRC stem cells,human CCSCs; liver metastasis,inhibited
same,"expression of Oct4, Nanog, Sox2, KLF4, and c-myc",[1],downregulation
same,expression of c-PARP,[1],upregulation
same,apoptosis,HT-29,significantly induced apoptosis
same,affinity-isolation of hCAS / hCAS binding to biotin-T3 in presence of free competitor,hCAS,reduces hCAS binding
same,affinity-isolation of hCAS / hCAS binding to biotin-T3 in presence of free competitor,hCAS; listed as δ-tocotrienol,inhibited
